Where a name gives a salt, the structure may show the parent alone.
Tests used:
[1] = test system: TUBO cells; test: Cell viability (neutral red); assay type: cell-based, murine; details: TUBO cells; compound alone, 5 nM
[2] = test system: JC cells; test: Cell viability (neutral red); assay type: cell-based, murine; details: JC cells; compound alone, 5 nM
[3] = test system: U2OS/DX cells; test: Cell viability (neutral red); assay type: cell-based, human; details: U2OS/DX cells; compound alone, 5 nM
[4] = test system: ca12 KO HT29/DX, A549/DX, MDA-MB-231 and U2OS/DX cells; test: Intracellular doxorubicin accumulation in ca12 knocked-out cells; assay type: cell-based, human
Experimental: Data are presented as means ± SD (n = 4). […] The absorbance of viable cells was measured spectrophotometrically. Data are presented as means ± SD (n = 4).
Doxorubicin content was measured fluorimetrically as detailed previously by us. […] Cells were washed twice with PBS, detached with trypsin and sonicated. The intracellular drug content was measured by liquid scintillation. The results were expressed as nmol drug/mg cell proteins, according to titration curves previously set.
5 × 10^5 cells were transduced with 1 μg RNA vector (CRISPR pCas guide vector) ca12 or 1 μg not-targeting vector, mixed with 1 μg donor DNA vector (Origene, Rockville, MD), following the manufacturer's instructions. Stable KO cells were selected in complete medium containing 1 μg/ml puromycin for three weeks. Knockout efficacy was evaluated by immunoblotting, as reported above.

[5] = target: human CA IX; set-up: method as in PMID 21851094, PMID 19827837, PMID 21314129; details: recombinant CA, errors ± 5%, three determinations; cited from earlier work
[6] = test system: A549 cells; test: Cell viability (neutral red); assay type: cell-based, human; details: A549 cells; compound alone, 5 nM
[7] = test system: T74D cells; test: Cell viability (neutral red); assay type: cell-based, human; details: T74D cells; compound alone, 5 nM
[8] = test system: HT29/DX cells; test: Cell viability (neutral red); assay type: cell-based, human; details: HT29/DX cells; compound alone, 5 nM
[9] = test system: CCD-Co-18 cells, BEAS-2B cells, MCF10A cells, fibroblasts; test: Cell viability (neutral red) of not-transformed cells; assay type: cell-based, human; details: 5 nM, 72 h; no detectable CAXII
Description: Supplementary Figure S4: Effects of compounds 1, 2 and 4 on not-transformed cells. (A) Not-transformed human epithelial colon CCD-Co-18 cells, epithelial lung BEAS-2B cells, epithelial breast MCF10A cells, fibroblasts (fibro) were lysed and immunoblotted for CAXII and CAIX. A549/DX cells were used as control of CAXII- and CAIX-positive cells. β-tubulin level was used as control of equal protein loading. The figure is representative of one out of three experiments with similar results. (B) Cells were grown for 72 h in fresh medium (–), or in medium containing 5 nM compounds 1, 2 and 4, then stained with neutral red dye. The absorbance of viable cells was measured spectrophotometrically. Data are presented as means ± SD (n = 4).

[10] = test system: MDA-MB-231 cells; test: Cell viability (neutral red); assay type: cell-based, human; details: MDA-MB-231 cells; compound alone, 5 nM
[11] = test system: SaOS/DX cells; test: Cell viability (neutral red); assay type: cell-based, human; details: SaOS/DX cells; compound alone, 5 nM
[12] = test system: Pgp; test: Pgp ATPase activity on Pgp-rich vesicles; assay type: cell-based; details: for reduction of Pgp ATPase activity: cells grown 24 h with 5 nM compound
Experimental: Pancadherin level was used as control of equal protein loading. no Ab: A549/DX sample immunoprecipitated without antibody. […] Data are presented as means ± SD (n = 3).
The assay was performed on Pgp-enriched membrane vesicles as detailed in [39]. Verapamil (10 μM) was added to the reaction mix to achieve a maximal activation of the Pgp ATPase activity. Results were expressed as nmol hydrolyzed phosphate (Pi)/min/mg proteins, according to the titration curve previously prepared.

[13] = test system: A549/DX cells; test: Cell viability (neutral red); assay type: cell-based, human; details: A549/DX cells; compound alone, 5 nM
[14] = test system: drug-sensitive and drug-resistant cancer cells; test: Cell viability (neutral red), whole panel of cancer cell lines; details: read-out: IC50 of tariquidar alone

IC50 [14] [nM] | effect on Pgp ATPase activity ([12]; tariquidar 25 nM added during the assay) | SMILES | reduction in viability for individual compounds [1] [%] | reduction in viability for individual compounds [2] [%] | reduction in viability for individual compounds [3] [%] | effect on doxorubicin intracellular accumulation [4] | Ki [5] [nM] | reduction in viability for individual compounds [6] [%] | reduction in viability for individual compounds [7] [%] | reduction in viability for individual compounds [8] [%] | cytotoxic effect in not-transformed cells [9] | reduction in viability for individual compounds [10] [%] | reduction in viability for individual compounds [11] [%] | reduction of Pgp ATPase activity [12] [fold] | reduction in viability for individual compounds [13] [%]
 |  | NS(=O)(=O)OC[C@H]1OC(O)[C@H](O)[C@@H](O)[C@@H]1O (stereo partly shown) [Compound 2] | ≤ 28 ± 7 | ≤ 30 ± 10 | ≤ 27 ± 8 | lost the ability to further increase the doxorubicin intracellular accumulation | 8.6 | ≤ 28 ± 10 | ≤ 33 ± 12 | ≤ 31 ± 6 | did not exert any cytotoxic effect | ≤ 36 ± 11 | ≤ 32 ± 7 | ≥ 1.47 | ≤ 38 ± 7
 |  | NS(=O)(=O)OC[C@H]1OC(O)[C@H](O)[C@@H](O)[C@H]1O (stereo partly shown) [Compound 4] | ≤ 28 ± 7 | ≤ 30 ± 10 | ≤ 27 ± 8 | lost the ability to further increase the doxorubicin intracellular accumulation | 62 | ≤ 28 ± 10 | ≤ 33 ± 12 | ≤ 31 ± 6 | did not exert any cytotoxic effect | ≤ 36 ± 11 | ≤ 32 ± 7 | ≥ 1.47 | ≤ 38 ± 7
> 10000 | strongly decreased ATPase activity | COc1cc2c(cc1OC)CN(CCc1ccc(NC(=O)c3cc(OC)c(OC)cc3NC(=O)c3cnc4ccccc4c3)cc1)CC2 [tariquidar, Tariquidar dihydrochloride, reference compound] |  |  |  |  |  |  |  |  |  |  |  |  | 

From PMC5349880, “P-glycoprotein-mediated chemoresistance is reversed by carbonic anhydrase XII inhibitors” (Oncotarget, 2016)
